Data on 1 compound can be found in paper PMC12299847, “Macroalgae-Inspired Brominated Chalcones as Cosmetic Ingredients with the Potential to Target Skin Inflammaging” (Marine Drugs, 2025).

One series relates to RAW 264.7 macrophages. In words: Resazurin cell viability assay in RAW 264.7 macrophages. Type of series: cell-based, murine. The settings on record: RAW 264.7, 24 h, 2.5 to 125 μM. As for the experimental part:
To evaluate the effects of chalcones 1–7 on cell viability after 24 h, a resazurin assay was performed using two cell lines: human HaCaT keratinocytes (HaCaT, CLS 300493), representing the epidermal layer, and murine RAW 264.7 macrophages (RAW 264.7, ATCC TIB-71), which model immune cells involved in dermal inflammatory responses. For the keratinocyte cell line, all seven brominated and non-brominated chalcones were tested across a concentration range from 2.5 μM to 125 μM (Figure 2).
To evaluate the cytotoxic effects of brominated and non-brominated chalcones 1–7 on macrophages, different concentration ranges were applied based on the response profiles previously observed for keratinocytes (Figure 3). […] For this set of chalcones, a similar tendency was observed: a lower cytotoxic characteristic of chalcone 4, which contained bromine atoms in both aromatic rings, compared to chalcones 5 (brominated in only the aromatic A ring) and 6 (non-brominated).
Human keratinocytes (HaCaT, CLS 300493, Eppelheim, Germany) were cultured in DMEM supplemented with heat-inactivated FBS, and a penicillin and streptomycin antibiotic solution. The cell culture of keratinocytes was washed with 6 mL of phosphate buffer solution with 0.05% EDTA (Sigma-Aldrich, St. Louis, MO, USA) and detached using 3 mL of 0.05% trypsin + 0.02% EDTA in PBS solution when the cells reached 70–80% confluence in cell culture flasks. DMEM was also used to cultivate the mouse macrophage cell line (RAW 264.7, ATCC TIB-71, Manassas, VA, USA) together with 10% (v/v) non-inactivated FBS, 1.5 g/L sodium bicarbonate, and 100 U/mL penicillin and 100 μg/mL streptomycin stock (antibiotic solution). The macrophage culture was mechanically detached using a cell scraper, and the final amount of DMEM media with the cells was sub-cultured in a 1:10 ratio to the cellular suspension.
The resazurin reduction assay was employed to evaluate the metabolic activity of human epidermal keratinocyte (HaCaT) and murine macrophage (RAW264.7) cell lines, as outlined in a previous study. In brief, HaCaT cells (1.0 × 10^5 cells/mL) and RAW264.7 cells (5.0 × 10^4 cells/mL) were seeded in 96-well plates (200 μL/well) and incubated overnight at 37 °C to allow for cell attachment. Following this, the cells were treated with different concentrations of the test compounds and kept at 37 °C for 24 h. After 20 h, resazurin (500 μM in sterile phosphate buffer solution, pH 7.4) was added to each well to achieve a final concentration of 50 μM, followed by an additional incubation of 4 h. Absorbance was then measured at wavelengths of 570 and 620 nm using a SpectraMax Plus 384 absorbance microplate spectrophotometer (Molecular Devices, San Jose, CA, USA). Each experiment was conducted in triplicate, with a minimum of three independent assays. […]
A general note: Resazurin is reduced to fluorescent resorufin, in cell work by metabolically active cells.

The test system of series [1] is NO production in LPS-stimulated RAW 264.7 macrophages. Put plainly: NO production (Griess assay) in LPS-stimulated macrophages. The format is cell-based, murine. The note with it: Mus musculus, RAW264.7, 24 h, RAW 264.7, LPS 100 ng/mL, Griess. Here is the method:
The anti-inflammatory potential of chalcones 1–7 was evaluated in macrophages cultured in the presence or absence (control) of LPS, as depicted in Figure 4. Under basal conditions (unstimulated, control), macrophages produce low levels of nitrites (≈12%). […] Each chalcone was tested at concentrations previously established as non-cytotoxic in macrophages, trying to ensure that observed changes in NO levels were not due to reduced cell viability.
The production of NO was evaluated by measuring nitrite accumulation in culture supernatants using the previously described Griess assay. Cells were seeded at a concentration of 5.0 × 10^4 cells/mL in a 96-well plate (200 μL/well) and allowed to stabilize overnight at 37 °C. Afterwards, the cells were treated with different concentrations of compound solutions and pre-incubated for 1 h at 37 °C. Subsequently, an LPS in PBS solution was added to each well, achieving a final concentration of 100 ng/mL, and the plate was left to incubate for 24 h. An amount of 150 μL of the cell culture supernatant was then transferred to a fresh 96-well plate, and an equal amount of Griess reagent [comprising a 1:1 mixture of 1% (w/v) sulphanilamide in 5% (v/v) phosphoric acid and 0.1% (w/v) naphthylethylenediaminedihydrochloride] was added. Following a 30 min incubation at room temperature in the dark, the absorbance was recorded at 550 nm using a Biotek Synergy HT plate reader (Biotek, CA, USA). The nitrite concentration in the supernatants was determined by comparing the absorbance of each sample to a sodium nitrite standard curve. The results, obtained from at least three independent experiments performed in duplicate, were expressed as a percentage of NO production by cells versus chemical concentration, relative to LPS condition (100%).
Figure 4 NO production by macrophages treated with LPS (100 ng/mL) or not (control) in the presence of chalcones 1–7. Results are expressed as a percentage of NO production by cells treated with LPS (100 ng/mL). Each value represents the mean ± SEM of four independent experiments in duplicate. Statistical analysis: one ANOVA with Dunnett’s multiple comparisons test, where p< 0.05 was considered significant. *** p < 0.005, relative to the control, and ^# p < 0.05, ^## p < 0.01, ^### p < 0.0005, and ^#### p < 0.0001, relative to LPS condition.

On to `COc1cc(Br)c(/C=C/C(=O)c2cc(OC)c(OC)cc2Br)cc1OC` [Chalcone 1], for which the cytotoxicity towards macrophages result with RAW 264.7 macrophages is “no cytotoxicity”. Besides, the half-inhibitory concentration (IC50) in series [1] came out at 580 ± 120 nM.

As usually defined, the IC50 is the concentration that gives 50% inhibition.
